Data published in patent US20260158009A1 (GENZYME CORPORATION, priority 2023, published 2026).

Tests used:
[1] = target: T1, hRIPK1 (aa 1-375) fusion protein (Homo sapiens, UniProt Q13546); assay: ADP-Glo kinase assay: catalytic activity of RIPK1 (autophosphorylation, conversion of ATP to ADP); format: biochemical
T1 construct: hRIPK1 (aa 1-375) fusion protein
T1 sequence (Q13546 1-375): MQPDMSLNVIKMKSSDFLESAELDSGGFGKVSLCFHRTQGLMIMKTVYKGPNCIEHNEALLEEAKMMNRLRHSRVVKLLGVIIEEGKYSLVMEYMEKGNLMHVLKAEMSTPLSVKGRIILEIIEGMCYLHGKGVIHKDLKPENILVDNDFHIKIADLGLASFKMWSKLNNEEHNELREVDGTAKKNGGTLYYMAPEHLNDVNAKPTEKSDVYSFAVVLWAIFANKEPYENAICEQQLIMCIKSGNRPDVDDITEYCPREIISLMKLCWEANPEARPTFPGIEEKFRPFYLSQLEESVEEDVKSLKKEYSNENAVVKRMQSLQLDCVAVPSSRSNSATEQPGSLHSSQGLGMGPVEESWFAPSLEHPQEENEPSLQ
Summary of the method: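 hRIPK1 (aa 1-375) fusion protein (3.6 μg/ml final) was preincubated 30 min at rt with compound (33300-1.69 nM, 1% DMSO), then 50 μM ATP was added for 240 min at rt. ADP from autophosphorylation was measured by ADP-Glo luminescence and curves fitted by nonlinear regression.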

U937 cells = assay: Cellular assay in U937 cells: activity of RIPK1 inhibitors on TNFα/zVAD.fmk-induced cell death (necroptosis), CellTiter 96 AQueous (MTS) readout; format: cell-based; conditions: Homo sapiens, U-937
Summary of the method: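 Necroptosis was measured by viable-cell MTS reduction (4 h, absorbance 490 nm) after overnight (18–24 h) 37° C culture. Cell suspensions of U937 cells carried TNFα (100 ng/ml) plus zVAD.fmk (50 μM) before compound was added. A 10-point curve (10 μM–0.26 nM or 1 μM–0.07 nM) was run in duplicate, normalised to the control lacking TNFα/zVAD.fmk.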

`Cc1nc2c(C)cc(C[C@H]3CC[C@H](C(=O)N4OCC[C@H]4c4cc(F)cc(C#N)c4)CC3)cn2n1` [compound 288, trans-3-[(3S)-2-[4-[(2,8-dimethyl-[1,2,4]triazolo[1,5-a]pyridin-6-yl)methyl]cyclohexanecarbonyl]isoxazolidin-3-yl]-5-fluoro-benzonitrile] gave an IC50 [1] of 0.017 µM and an IC50 (U937 cells) of 0.004 µM.

For `Cc1cc([C@@H]2CCON2C(=O)[C@H]2CC[C@H](Cn3cnc4cc(C#N)c(F)cc43)CC2)co1` [compound 40, trans-6-fluoro-1-((4-((S)-3-(5-methylfuran-3-yl)isoxazolidine-2-carbonyl)cyclohexyl)methyl)-1H-benzo[d]imidazole-5-carbonitrile], the IC50 [1] was 0.041 µM and the IC50 (U937 cells) was 0.059 µM.

`Cc1nc([C@@H]2CCON2C(=O)[C@H]2CC[C@H](Cc3cc(F)c4nnc(C)n4c3)CC2)cs1` [compound 363, trans-[4-(8-Fluoro-3-methyl-[1,2,4]triazolo[4,3-a]pyridin-6-ylmethyl)-cyclohexyl]-[(S)-3-(2-methyl-thiazol-4-yl)-isoxazolidin-2-yl]-methanone] was tested, and the IC50 [1] was 0.18 µM and the IC50 (U937 cells) was 0.222 µM.

In the case of `Cc1ncn(C[C@H]2CC[C@H](C(=O)N3OCC[C@H]3c3cc(F)cc(F)c3)CC2)c1C#N` [compound 89, trans-1-((4-((S)-3-(3,5-difluorophenyl)isoxazolidine-2-carbonyl)cyclohexyl)methyl)-4-methyl-1H-imidazole-5-carbonitrile], the IC50 [1] is reported as 0.034 µM and the IC50 (U937 cells) is reported as 0.038 µM.

In the case of `Cc1ccc([C@@H]2CCON2C(=O)[C@H]2CC[C@H](Cc3cnc4cnn(C)c4c3)CC2)cn1` [compound 329, trans-[4-[(1-methylpyrazolo[4,3-b]pyridin-6-yl)methyl]cyclohexyl]-[(3S)-3-(6-methylpyridin-3-yl)-1,2-oxazolidin-2-yl]methanone], the IC50 [1] is reported as 0.044 µM and the IC50 (U937 cells) is reported as 0.082 µM.

`Cc1c2ccccc2nn1C[C@H]1CC[C@H](C(=O)N2OCC[C@H]2c2cc(F)cc(F)c2)CC1` [compound 62, trans-((S)-3-(3,5-difluorophenyl)isoxazolidin-2-yl)(4-((3-methyl-2H-indazol-2-yl)methyl)cyclohexyl)methanone] was tested, and the IC50 [1] was 0.02 µM and the IC50 (U937 cells) was 0.022 µM.

Work on `Cc1ccc(CC23CCC(C(=O)N4OCC[C@H]4c4cc(F)cc(F)c4)(CC2)C3)cc1C(N)=O` [compound 269, 5-[[4-[(3S)-3-(3,5-difluorophenyl)isoxazolidine-2-carbonyl]norbornan-1-yl]methyl]-2-methyl-benzamide] yielded an IC50 [1] of 0.013 µM and an IC50 (U937 cells) of 0.028 µM.

With `O=C([C@H]1CC[C@H](Cn2ccc3ncc(F)cc32)CC1)N1OCC[C@H]1c1cc(F)cc(F)c1` [compound 94, trans-((S)-3-(3,5-difluorophenyl)isoxazolidin-2-yl)(4-((6-fluoro-1H-pyrrolo[3,2-b]pyridin-1-yl)methyl)cyclohexyl)methanone] the IC50 [1] was 0.019 µM and the IC50 (U937 cells) was 0.001 µM.

`N#Cc1cnc2ccn(C[C@H]3CC[C@H](C(=O)N4OCC[C@H]4c4cncc(F)c4)CC3)c2c1` [compound 3, trans-1-((4-((S)-3-(5-fluoropyridin-3-yl)isoxazolidine-2-carbonyl)cyclohexyl)methyl)-1H-pyrrolo[3,2-b]pyridine-6-carbonitrile] gave an IC50 [1] of 0.022 µM and an IC50 (U937 cells) of 0.018 µM.

For `Cc1cnc([C@@H]2CCON2C(=O)[C@H]2CC[C@H](Cc3cc(F)c4nc(C)nn4c3)CC2)cn1` [compound 379, trans-[4-[(8-fluoro-2-methyl-[1,2,4]triazolo[1,5-a]pyridin-6-yl)methyl]cyclohexyl]-[(3S)-3-(5-methylpyrazin-2-yl)-1,2-oxazolidin-2-yl]methanone], the IC50 [1] was 0.05 µM and the IC50 (U937 cells) was 0.191 µM.

`Cc1cn2ncc(C[C@H]3CC[C@H](C(=O)N4OCC[C@H]4c4cccc(C#N)c4)CC3)cc2n1` [compound 322, [2-cyano-4-[(3S)-2-[4-[(2-methylimidazo[1,2-b]pyridazin-7-yl)methyl]cyclohexanecarbonyl]isoxazolidin-3-yl]phenyl]] gave an IC50 [1] of 0.037 µM and an IC50 (U937 cells) of 0.027 µM.

Work on `Cc1cc(C[C@H]2CC[C@H](C(=O)N3OCC[C@H]3c3cc(F)cc(C#N)c3)CC2)cn2c(C)nnc12` [compound 300, trans-3-[(3S)-2-[4-[(3,8-dimethyl-[1,2,4]triazolo[4,3-a]pyridin-6-yl)methyl]cyclohexanecarbonyl]-1,2-oxazolidin-3-yl]-5-fluorobenzonitrile] yielded an IC50 [1] of 0.019 µM and an IC50 (U937 cells) of 0.013 µM.

`Cc1ncn(C[C@H]2CC[C@H](C(=O)N3OCC[C@H]3c3cc(F)cc(C#N)c3)CC2)c1C` [compound 82, trans-3-((S)-2-(4-((4,5-dimethyl-1H-imidazol-1-yl)methyl)cyclohexane-1-carbonyl)isoxazolidin-3-yl)-5-fluorobenzonitrile] showed an IC50 [1] of 0.067 µM and an IC50 (U937 cells) of 0.136 µM.

In the case of `Cc1nc2c(C)cc(C[C@H]3CC[C@H](C(=O)N4OCC[C@H]4c4csc(C)n4)CC3)cn2n1` [compound 361, trans-[4-(2,8-Dimethyl-[1,2,4]triazolo[1,5-a]352yridine-6-ylmethyl)-cyclohexyl]-[(S)-3-(2-methyl-thiazol-4-yl)-isoxazolidin-2-yl]-methanone], the IC50 [1] is reported as 0.057 µM and the IC50 (U937 cells) is reported as 0.035 µM.

`Cc1cncc([C@@H]2CCON2C(=O)[C@H]2CC[C@H](Cc3cc(C)c4nc(C)nn4c3)CC2)n1` [compound 411, trans-[4-[(2,8-dimethyl-[1,2,4]triazolo[1,5-a]pyridin-6-yl)methyl]cyclohexyl]-[(3S)-3-(6-methylpyrazin-2-yl)isoxazolidin-2-yl]methanone] gave an IC50 [1] of 0.048 µM and an IC50 (U937 cells) of 0.036 µM.

With `N#Cc1cc(F)cc([C@@H]2CCON2C(=O)[C@H]2CC[C@H](Cn3ccc4ncccc43)CC2)c1` [compound 14, trans-3-((S)-2-(4-((1H-pyrrolo[3,2-b]pyridin-1-yl)methyl)cyclohexane-1-carbonyl)isoxazolidin-3-yl)-5-fluorobenzonitrile] the IC50 [1] was 0.05 µM and the IC50 (U937 cells) was 0.003 µM.

Work on `N#Cc1ccc2cn(C[C@H]3CC[C@H](C(=O)N4OCC[C@H]4c4cc(F)cc(F)c4)CC3)nc2c1` [compound 31, trans-2-((4-((S)-3-(3,5-difluorophenyl)isoxazolidine-2-carbonyl)cyclohexyl)methyl)-2H-indazole-6-carbonitrile] yielded an IC50 [1] of 0.024 µM and an IC50 (U937 cells) of 0.019 µM.

For `Cc1cc(C[C@H]2CC[C@H](C(=O)N3OCC[C@H]3c3csc(C)n3)CC2)c(C)cn1` [compound 366, trans-[4-(2,5-Dimethyl-pyridin-4-ylmethyl)-cyclohexyl]-[(S)-3-(2-methyl-thiazol-4-yl)-isoxazolidin-2-yl]-methanone], the IC50 [1] was 0.04 µM and the IC50 (U937 cells) was 0.011 µM.

`Cc1cnc([C@@H]2CCON2C(=O)[C@H]2CC[C@H](Cc3cc(C)ncc3F)CC2)cn1` [compound 384, trans-[4-[(5-fluoro-2-methylpyridin-4-yl)methyl]cyclohexyl]-[(3S)-3-(5-methylpyrazin-2-yl)-1,2-oxazolidin-2-yl]methanone] gave an IC50 [1] of 0.028 µM and an IC50 (U937 cells) of 0.007 µM.

`Cc1nn(C[C@H]2CC[C@H](C(=O)N3OCC[C@H]3c3cc(F)cc(C#N)c3)CC2)c2cc(C#N)c(F)cc12` [compound 85, trans-1-((4-((S)-3-(3-cyano-5-fluorophenyl)isoxazolidine-2-carbonyl)cyclohexyl)methyl)-5-fluoro-3-methyl-1H-indazole-6-carbonitrile] showed an IC50 [1] of 0.021 µM and an IC50 (U937 cells) of 0.003 µM.

With `Cc1cc(C[C@H]2CC[C@H](C(=O)N3OCC[C@H]3c3cc(F)cc(F)c3)CC2)ncn1` [compound 313, trans-[(3S)-3-(3,5-difluorophenyl)isoxazolidin-2-yl]-[4-[(6-methylpyrimidin-4-yl)methyl]cyclohexyl]methanone] the IC50 [1] was 0.042 µM and the IC50 (U937 cells) was 0.04 µM.

`N#Cc1cc(F)cc([C@@H]2CCON2C(=O)[C@H]2CC[C@H](Cc3cc(F)cc(CCO)c3)CC2)c1` [compound 282, trans-3-fluoro-5-[(3S)-2-[4-[[3-fluoro-5-(2-hydroxyethyl)phenyl]methyl]cyclohexanecarbonyl]isoxazolidin-3-yl]benzonitrile] showed an IC50 [1] of 0.018 µM and an IC50 (U937 cells) of 0.01 µM.

`COCCOc1cnc2ccn(C[C@H]3CC[C@H](C(=O)N4OCC[C@H]4c4cc(F)cc(C#N)c4)CC3)c2c1` [compound 149, trans-3-fluoro-5-[(3S)-2-[4-[[6-(2-methoxyethoxy)pyrrolo[3,2-b]pyridin-1-yl]methyl]cyclohexanecarbonyl]isoxazolidin-3-yl]benzonitrile] gave an IC50 [1] of 0.009 µM and an IC50 (U937 cells) of 0.008 µM.

Molecule `Cc1nc([C@@H]2CCON2C(=O)[C@H]2CC[C@H](Cn3ncc4cc(C#N)ccc43)CC2)cs1` [compound 202, trans-1-[[4-[(3S)-3-(2-methylthiazol-4-yl)isoxazolidine-2-carbonyl]cyclohexyl]methyl]indazole-5-carbonitrile] has an IC50 [1] of 0.019 µM and an IC50 (U937 cells) of 0.039 µM.

In the case of `Cc1nc2c(F)cc(C[C@H]3CC[C@H](C(=O)N4OCC[C@H]4c4cc(F)cc(C#N)c4)CC3)cn2n1` [compound 284, trans-3-fluoro-5-[(3S)-2-[4-[(8-fluoro-2-methyl-[1,2,4]triazolo[1,5-a]pyridin-6-yl)methyl]cyclohexanecarbonyl]isoxazolidin-3-yl]benzonitrile], the IC50 [1] is reported as 0.017 µM and the IC50 (U937 cells) is reported as 0.034 µM.
